In brackets after ≈: the same amount, converted by molar mass.
Tests used:
Type in all cases: functional
Streptococcus pneumoniae [1] = test: Tested for in vitro antibacterial activity against Streptococcus pneumoniae 6301
Streptococcus pyogenes [2] = test: Tested for in vitro antibacterial activity against Streptococcus pyogenes 4
Staphylococcus aureus [3] = test: Tested for in vitro antibacterial activity against Staphylococcus aureus Smith
Citrobacter freundii [4] = test: Tested for in vitro antibacterial activity against Citrobacter freundii BS-16
Staphylococcus aureus [5] = test: Tested for in vitro antibacterial activity against Staphylococcus aureus 67
Enterobacter cloacae [6] = test: Tested for in vitro antibacterial activity against Enterobacter cloacae P99
Escherichia coli [7] = test: Tested for in vitro antibacterial activity against Escherichia coli TEM-1
Pseudomonas aeruginosa [8] = test: Tested for in vitro antibacterial activity against Pseudomonas aeruginosa 5712
Escherichia coli [9] = test: Tested for in vitro antibacterial activity against Escherichia coli 257
Klebsiella pneumoniae [10] = test: Tested for in vitro antibacterial activity against Klebsiella pneumoniae A
Pseudomonas aeruginosa [11] = test: Tested for in vitro antibacterial activity against Pseudomonas aeruginosa 18SH
Proteus vulgaris [12] = test: Tested for in vitro antibacterial activity against Proteus vulgaris ATCC 6380
Staphylococcus aureus [13] = test: Tested for in vitro antibacterial activity against Staphylococcus aureus 753
Escherichia coli [14] = test: Tested for in vitro antibacterial activity against Escherichia coli 257; inactive
Citrobacter freundii [15] = test: Tested for in vitro antibacterial activity against Citrobacter freundii BS-16; inactive
Staphylococcus aureus [16] = test: Tested for in vitro antibacterial activity against Staphylococcus aureus 67; inactive
Enterobacter cloacae [17] = test: Tested for in vitro antibacterial activity against Enterobacter cloacae P99; inactive
Proteus vulgaris [18] = test: Tested for in vitro antibacterial activity against Proteus vulgaris ATCC 6380; inactive
Escherichia coli [19] = test: Tested for in vitro antibacterial activity against Escherichia coli TEM-1; inactive
Staphylococcus aureus [20] = test: Tested for in vitro antibacterial activity against Staphylococcus aureus Smith; inactive
Streptococcus pyogenes [21] = test: Tested for in vitro antibacterial activity against Streptococcus pyogenes 4; inactive
Staphylococcus aureus [22] = test: Tested for in vitro antibacterial activity against Staphylococcus aureus 753; inactive
Pseudomonas aeruginosa [23] = test: Tested for in vitro antibacterial activity against Pseudomonas aeruginosa 5712; inactive
Streptococcus pneumoniae [24] = test: Tested for in vitro antibacterial activity against Streptococcus pneumoniae 6301; inactive
Pseudomonas aeruginosa [25] = test: Tested for in vitro antibacterial activity against Pseudomonas aeruginosa 18SH; inactive
Klebsiella pneumoniae [26] = test: Tested for in vitro antibacterial activity against Klebsiella pneumoniae A; inactive

| Structure (SMILES) | MIC (Streptococcus pneumoniae [1]) | MIC (Streptococcus pyogenes [2]) | MIC (Staphylococcus aureus [3]) | MIC (Citrobacter freundii [4]) | MIC (Staphylococcus aureus [5]) | MIC (Enterobacter cloacae [6]) | MIC (Escherichia coli [7]) | MIC (Pseudomonas aeruginosa [8]) | MIC (Escherichia coli [9]) | MIC (Klebsiella pneumoniae [10]) | MIC (Pseudomonas aeruginosa [11]) | MIC (Proteus vulgaris [12]) | MIC (Staphylococcus aureus [13]) | other results |
| --- | --- | --- | --- | --- | --- | --- | --- | --- | --- | --- | --- | --- | --- | --- |
| O=C(O)c1cn(C2CC2)c2c(F)c(N3CCNCC3)c(F)cc2c1=O | 1 mg/L (≈ 2.86 µM) | 0.5 mg/L (≈ 1.43 µM) | 0.125 mg/L (≈ 0.358 µM) | 0.0313 mg/L (≈ 0.0896 µM) | 0.5 mg/L (≈ 1.43 µM) | 0.0078 mg/L (≈ 0.0223 µM) | 0.0156 mg/L (≈ 0.0447 µM) | 1 mg/L (≈ 2.86 µM) | 0.0078 mg/L (≈ 0.0223 µM) | 0.25 mg/L (≈ 0.716 µM) | 0.25 mg/L (≈ 0.716 µM) | 0.0078 mg/L (≈ 0.0223 µM) | 0.25 mg/L (≈ 0.716 µM) |  |
| CO/N=C(/C(=O)NC1C(=O)N2C(C(=O)[O-])=C(CSc3nnnn3CC(=O)N3CCN(c4cc5c(cc4F)c(=O)c(C(=O)O)cn5C4CC4)CC3)CS[C@H]12)c1csc(N)n1.[Na+] (stereo partly drawn) | ≤ 0.0156 mg/L | ≤ 0.0156 mg/L | 4 mg/L | 32 mg/L | 64 mg/L | 16 mg/L | 2 mg/L | > 128 mg/L | 4 mg/L | 2 mg/L | 128 mg/L | 4 mg/L | 128 mg/L |  |
| O=C(O)c1cn(C2CC2)c2cc(N3CCN(C(=O)Cn4nnnc4S)CC3)c(F)cc2c1=O | 64 mg/L (≈ 135 µM) | 64 mg/L (≈ 135 µM) | 32 mg/L (≈ 67.6 µM) | 4 mg/L (≈ 8.45 µM) | 64 mg/L (≈ 135 µM) | 2 mg/L (≈ 4.22 µM) | 2 mg/L (≈ 4.22 µM) | 128 mg/L (≈ 270 µM) | 2 mg/L (≈ 4.22 µM) | 32 mg/L (≈ 67.6 µM) | 32 mg/L (≈ 67.6 µM) | 4 mg/L (≈ 8.45 µM) | 64 mg/L (≈ 135 µM) |  |
| CO/N=C(/C(=O)NC1C(=O)N2C(C(=O)[O-])=C(CO)CS[C@H]12)c1csc(N)n1.[Na+] (stereo partly drawn) | 0.0625 mg/L | ≤ 0.0157 mg/L | 16 mg/L | > 128 mg/L | > 128 mg/L | > 128 mg/L | 0.25 mg/L | > 128 mg/L | 0.25 mg/L | 0.0625 mg/L | > 128 mg/L | 0.0625 mg/L | > 128 mg/L |  |
| CO/N=C(/C(=O)NC1C(=O)N2C(C(=O)[O-])=C(CSc3nnnn3CC(=O)O)CS[C@H]12)c1csc(N)n1.[Na+] (stereo partly drawn) | 0.0313 mg/L | 0.0313 mg/L | 8 mg/L | 128 mg/L | > 128 mg/L | > 128 mg/L | 0.125 mg/L | 16 mg/L | 0.125 mg/L | 0.0625 mg/L | > 128 mg/L | ≤ 0.0156 mg/L | > 128 mg/L |  |
| O=C([O-])Cn1nnnc1[S-].[Na+].[Na+] |  |  |  |  |  |  |  |  |  |  |  |  |  | MIC (Escherichia coli [14]): > 128 mg/L; MIC (Citrobacter freundii [15]): > 128 mg/L; MIC (Staphylococcus aureus [16]): > 128 mg/L; MIC (Enterobacter cloacae [17]): > 128 mg/L; MIC (Proteus vulgaris [18]): > 128 mg/L; MIC (Escherichia coli [19]): > 128 mg/L; MIC (Staphylococcus aureus [20]): > 128 mg/L; MIC (Streptococcus pyogenes [21]): > 128 mg/L; MIC (Staphylococcus aureus [22]): > 128 mg/L; MIC (Pseudomonas aeruginosa [23]): > 128 mg/L; MIC (Streptococcus pneumoniae [24]): > 128 mg/L; MIC (Pseudomonas aeruginosa [25]): > 128 mg/L; MIC (Klebsiella pneumoniae [26]): > 128 mg/L |

Reference: ChEMBL document CHEMBL1127180, “Synthesis and mechanistic studies of a tetrazole-tethered cephalosporin-quinolone hybrid” (1993)
